Experimental data as given in patent US6653306B1, “Epoxy-steroidal aldosterone antagonist and angiotensin II antagonist combination therapy” (G.D. Searle & Co., priority 1995, dated 2003).
Several values for one entry are separate records, joined by “and”; a condition that tells them apart may be missing. Equal values may be shown once. Read-outs that look alike come from different tables or passages of the source.

Legend:
[1] = molecular target: angiotensin II AT1 receptor; test: Assay A: Angiotensin II binding activity (125I-AII displacement, rat uterine membrane preparation)
[2] = tested on: rabbit aortic rings; test: Assay B: In vitro vascular smooth muscle response for AII (antagonist activity, pA2); assay type: cell-based; conditions: two values per cell separated by / are separate determinations; for Kb: Oryctolagus cuniculus
Protocol: Assay B: In Vitro Vascular Smooth Muscle-response for AII
The compounds of the invention were tested for antagonist activity in rabbit aortic rings. Male New Zealand white rabbits (2-2.5 kg) were sacrificed using an overdose of pentobarbital and exsanguinated via the carotid arteries. The thoracic aorta was removed, cleaned of adherent fat and connective tissue and then cut into 3-mm ring segments. The endothelium was removed from the rings by gently sliding a rolled-up piece of filter paper into the vessel lumen. The rings were then mounted in a water-jacketed tissue bath, maintained at 37° C., between moveable and fixed ends of a stainless steel wire with the moveable end attached to an FT03 Grass transducer coupled to a Model 7D Grass Polygraph for recording isometric force responses. The bath was filled with 20 ml of oxygenated (95% oxygen/5% carbon dioxide) Krebs solution of the following composition (mM): 130 NaCl, […], 15 KCl, 1.2 NaH2PO4, 1.2 MgSO4, 2.5 CaCl2, and 11.4 glucose. The preparations were equilibrated for one hour before approximately one gram of passive tension was placed on the rings. Angiotensin II concentration-response curves were then recorded (3×10^−10 to 1×10^−5 M). Each concentration of AII was allowed to elicit its maximal contraction, and then AII was washed out repeatedly for 30 minutes before rechallenging with a higher concentration of AII. Aorta rings were exposed to the test antagonist at […] for 5 minutes before challenging with AII. Adjacent segments of the same aorta ring were used for all concentration-response curves in the presence or absence of the test antagonist. The effectiveness of the test compound was expressed in terms of pA2 values and were calculated according to H. O. Schild [Br. J. Pharmacol, Chemother., 2,189-206 (1947)]. The pA2 value is the concentration of the antagonist which increases the EC50 value for AII by a factor of two. Each test antagonist was evaluated in aorta rings from two rabbits.

[3] = tested on: pressor response to AII; test: Assay C: In vivo intragastric pressor assay response for AII antagonists; parameters: species or system rat; conditions: intragastric, or intraduodenal for examples listed; for inhibition at 3 mg/kg / inhibition at 100 mg/kg / inhibition at 30 mg/kg / inhibition at 10 mg/kg: Rattus norvegicus; for Assay C Inhibition: dose cell empty (dose not given)
Outline: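 Conscious male Sprague-Dawley rats with arterial and venous catheters received 30 ng/kg i.v. angiotensin II boluses before and at 30–180 min after gavage of compound (standard 3 mg/kg in 0.5% methylcellulose). Pressor rise in mmHg measured; percent inhibition calculated versus averaged control response at each time point.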

[4] = in vitro vascular smooth muscle response, read-out: Assay B pA2 (converted)
[5] = in vitro vascular smooth muscle response

| Compound | IC50 [1] | Kb [2, 4] | inhibition at 3 mg/kg ([3]; dose 3 mg/kg) | Assay C Duration ([3]; dose 3 mg/kg) | also measured |
| --- | --- | --- | --- | --- | --- |
| CCCCc1cn(CCc2cccs2)c(=O)n1Cc1ccc(-c2ccccc2-c2nnn[nH]2)cc1 [Compound 134] | 22 nM | 0.501 nM | 35% | 180 min |  |
| CCCCc1nn(CC(OCC(=O)O)c2ccccc2)c(=O)n1Cc1ccc(-c2ccccc2-c2nn[nH]n2)cc1 (stereo not drawn) [Compound 91] | 30 nM | 2.51 nM |  |  | Assay C Inhibition [3]: 40% |
| CCCCc1cn(-c2ccccc2Cl)c(=O)n1Cc1ccc(-c2ccccc2-c2nnn[nH]2)cc1 [Compound 135] | 16 nM | 3.16 nM | 35% | >180 min |  |
| CCCCc1nc(C(F)(F)CCC)nn1Cc1ccc(-c2ccccc2-c2nnn[nH]2)nc1 [Compound 247] | 9.4 nM | 5.5 nM | 20% | 180 min |  |
| CCCCc1cn(-c2c(C)cccc2Cl)c(=O)n1Cc1ccc(-c2ccccc2-c2nnn[nH]2)cc1 [Compound 274] | 13 nM |  | 35% | >180 min | Assay B pA2 [2, 5]: 9.06 and 8.85 |
| CCCCc1nc(C(F)(F)CCC)n(Cc2ccc(-c3ccccc3-c3nnn[nH]3)nc2)n1 [Compound 248] | 20 nM | 20.9 nM | 10% |  |  |
| CCCCc1nc(C(=O)N(C)C(C)(C)C)nn1Cc1ccc(-c2ccccc2-c2nnn[nH]2)nc1 [Compound 255] | 12 nM | 24.5 nM | 20% | >180 min |  |
| CCCCc1cn(CCc2ccccc2)c(=O)n1Cc1ccc(-c2ccccc2-c2nnn[nH]2)cc1 [Compound 133] | 10 nM | 2 nM | 20% | 180 min |  |
| CCCCc1nn(CC(O)c2ccccc2)c(=O)n1Cc1ccc(-c2ccccc2-c2nn[nH]n2)cc1 (stereo not drawn) [Compound 83] | 3.6 nM | 5.01 nM |  |  | Assay C Inhibition [3]: 15% |
| CCCCc1cn(-c2c(C)cccc2C)c(=O)n1Cc1ccc(-c2ccccc2-c2nnn[nH]2)cc1 [Compound 275] | 6.3 nM | 0.851 nM | 40% | >180 min |  |
| CCCCn1nc(-c2ccccc2Cl)nc1Cc1ccc(-c2ccccc2-c2nnn[nH]2)nc1 [Compound 158] | 54 nM | 5.89 nM | 30% | >180 min |  |
| CCCCc1nn(CCCC)c(=O)n1Cc1ccc(-c2ccccc2C(=O)O)cc1 [Compound 78] | 101 nM | 100 nM |  |  | Assay C Inhibition [3]: 93% |
| CCCCc1nc(CCCC)n(Cc2ccc(-n3c(Cl)cc(Cl)c3-c3nnn[nH]3)cc2)n1 [Compound 143] | 0.052 nM | 20 nM |  |  | Assay C Inhibition [3]: 85% |
| CCCCc1cn(-c2c(CC)cccc2CC)c(=O)n1Cc1ccc(-c2ccccc2-c2nnn[nH]2)cc1 [Compound 276] | 33 nM |  | < 20% |  | Assay B pA2 [2, 5]: 8.71 and 8.64 |
| CCCn1nc(C(F)(F)CCC)nc1Cc1ccc(-c2ccccc2-c2nnn[nH]2)nc1 [Compound 169] | 150 nM | 16.6 nM | 15% | 180 min |  |
| CCCCc1nc(Cl)c(Cl)n1Cc1ccc(-n2cccc2C(=O)O)cc1 [Compound 147] | 5.8 nM | 2510 nM | 74% | 5 to 10 min |  |

| Compound | IC50 [1] | Kb [2, 4] | inhibition at 3 mg/kg ([3]; dose 3 mg/kg) | Assay C Duration ([3]; dose 3 mg/kg) | also measured |
| --- | --- | --- | --- | --- | --- |
| CCCCn1nc(CCC)nc1Cc1ccc(-c2ccccc2-c2nnn[nH]2)nc1 [Compound 152] | 150 nM | 34.7 nM | 10% | 140 min |  |
| CCCCc1nc2cnnc(O)c2n1Cc1ccc(-c2ccccc2-c2nnn[nH]2)cc1 [Compound 115] |  | 6.31 nM | 40% | >240 min |  |
| CCCCc1nc(Cl)nn1Cc1ccc(-c2ccccc2C(=O)O)cc1 [compound 6] |  | 282 nM |  |  | inhibition at 100 mg/kg ([3]; dose 100 mg/kg): 90% |
| CCCCc1nc(C(=O)CCC)nn1Cc1ccc(-c2ccccc2-c2nnn[nH]2)cc1 [Compound 30] | 22 nM | 18.6 nM |  |  | inhibition at 30 mg/kg ([3]; dose 30 mg/kg): 50%; Assay C Duration ([3]; dose 30 mg/kg): >180 min |
| CCCCc1nn(CC(=O)OC(C)(C)C)c(=O)n1Cc1ccc(-c2ccccc2-c2nn[nH]n2)cc1 [Compound 84] | 16 nM | 79.4 nM |  |  | Assay C Inhibition [3]: 20% |
| CCCCc1nc(CCc2ccccc2)nn1Cc1ccc(-c2ccccc2-c2nnn[nH]2)cc1 [Compound 26] | 3.2 nM | 0.148 nM |  |  | inhibition at 10 mg/kg ([3]; dose 10 mg/kg): 50%; Assay C Duration ([3]; dose 10 mg/kg): >180 min |
| CCCCc1nc2cnncc2n1Cc1ccc(-c2ccccc2C(=O)O)cc1 [Compound 108] | 720 nM | 5010 nM |  |  | inhibition at 100 mg/kg ([3]; dose 100 mg/kg): 45%; Assay C Duration ([3]; dose 100 mg/kg): 90 min |
| CCCCc1nc(Cl)c(CO)n1Cc1ccc(-n2cccc2C(=O)O)cc1 [Compound 148] |  | 1580 nM | 92% | 20 to 30 min |  |
| CCCCc1nn(CCCc2ccccc2)c(=O)n1Cc1ccc(-c2ccccc2-c2nn[nH]n2)cc1 [Compound 81] | 18 nM | 10 nM |  |  | Assay C Inhibition [3]: 40% |
| CCCCc1cn(-c2c(C)cc(C)cc2C)c(=O)n1Cc1ccc(-c2ccccc2-c2nnn[nH]2)cc1 [Compound 278] | 30 nM |  | 50% | >180 min | Assay B pA2 [2, 5]: 8.49 and 8.51 |
| CCCCc1nc2c(OC(=O)Cc3ccccc3)nnc(O)c2n1Cc1ccc(-c2ccccc2-c2nnn[nH]2)cc1 [Compound 124] |  |  | 45% | >180 min | Kb ([2]; read-out: Assay B pA2, in vitro vascular smooth muscle response (converted)): 0.38 nM |
| CCCCc1nc(Cc2ccc(-c3ccccc3-c3nnn[nH]3)nc2)n(CCCC)n1 [Compound 150] | 14 nM | 9.33 nM | 25% | >180 min |  |
| CCCCc1nc2c(OC(=O)C3CCCCC3)nnc(O)c2n1Cc1ccc(-c2ccccc2-c2nnn[nH]2)cc1 [Compound 120] |  | 0.891 nM |  |  | inhibition at 10 mg/kg ([3]; dose 10 mg/kg): 80%; Assay C Duration ([3]; dose 10 mg/kg): 240 min |
| CCCCc1cn(-c2c(OC)cccc2OC)c(=O)n1Cc1ccc(-c2ccccc2-c2nnn[nH]2)cc1 [Compound 273] | 9.8 nM |  | 25% | >180 min | Assay B pA2 [2, 5]: 8.53 and 8.61 |
| CCCCc1nc2c(O)nnc(O)c2n1Cc1ccc(-c2ccccc2C(=O)O)cc1 [Compound 109] | 250 nM | 50.1 nM |  |  | inhibition at 30 mg/kg ([3]; dose 30 mg/kg): 50%; Assay C Duration ([3]; dose 30 mg/kg): 30 min |
| CCCCn1nc(C(OCC)OCC)nc1Cc1ccc(-c2ccccc2-c2nnn[nH]2)nc1 [Compound 176] | 9.8 nM | 20.4 nM | 10% | 150 min |  |
